Results reported in patent publication US8344028B2, “Gamma-amino-butyric acid derivatives as GABAB receptor ligands” (XenoPort, Inc., priority 2009, dated 2013).

Assays:
GABAB receptor = biological target: T1, GABAB receptor (Rattus norvegicus, UniProt Q9Z0U4); assay: [3H]CGP54626 rat brain GABAB receptor binding assay; details: [3H]CGP54626 rat brain binding assay
T1 construct: from tissue; host or cells: rat cerebral cortex membranes

[1] = Bioavailability following oral administration to rats; details: rat, in vivo
Description: Rats were obtained commercially and were pre-cannulated in the jugular vein. Animals were conscious at the time of the experiment. All animals were fasted overnight and until 4 hours post-dosing of a compound.
Rat blood samples (0.3 mL/sample) were collected from all animals prior to dosing and at different time-points up to 24 h post-dose into tubes containing EDTA. Two aliquots (100 μL each) were quenched with 300 μL methanol and stored at −20° C. prior to analysis.
To prepare analysis standards, 90 μL of rat blood was quenched with 300 μL methanol followed by 10 μL of spiking standard and/or 20 μL of internal standard. The sample tubes were vortexed for at least 2 min and then centrifuged at 3400 rpm for 20 min. The supernatant was then transferred to an injection vial or plate for analysis by LC-MS-MS.
To prepare samples for analysis, 20 μL of internal standard was added to each quenched sample tube. The sample tubes were vortexed for at least 2 min and then centrifuged at 3400 rpm for 20 min. The supernatant was then transferred to an injection vial or plate for analysis by LC-MS-MS.
LC/MS/MS analysis was performed using an API 2000 or API 4000 mass spectrometer equipped with a Shimadzu and or Agilent HPLC system are used for determination concentration of compounds in rat blood. A Varian Polaris C18, 3μ 50×4.6 mm column was used. 0.1% Formic acid in water and acetonitrile were applied as the mobile phase. Runs were 4.0 min. […] L-4-Chlorophenylalanine was used as an internal standard at m/z 200.00/154.00.
Non-compartmental analysis was performed using WinNonlin software (v.3.1 Professional Version, Pharsight Corporation, Mountain View, Calif.) on individual animal profiles. […]
The oral bioavailability (F %) of a compound was determined by comparing the area under the compound concentration vs time curve (AUC) following oral administration of a prodrug of a GABAB ligand with the AUC of the compound concentration vs time curve following intravenous administration of the GABAB ligand on a dose normalized basis.

T1 sequence (Q9Z0U4 20-960): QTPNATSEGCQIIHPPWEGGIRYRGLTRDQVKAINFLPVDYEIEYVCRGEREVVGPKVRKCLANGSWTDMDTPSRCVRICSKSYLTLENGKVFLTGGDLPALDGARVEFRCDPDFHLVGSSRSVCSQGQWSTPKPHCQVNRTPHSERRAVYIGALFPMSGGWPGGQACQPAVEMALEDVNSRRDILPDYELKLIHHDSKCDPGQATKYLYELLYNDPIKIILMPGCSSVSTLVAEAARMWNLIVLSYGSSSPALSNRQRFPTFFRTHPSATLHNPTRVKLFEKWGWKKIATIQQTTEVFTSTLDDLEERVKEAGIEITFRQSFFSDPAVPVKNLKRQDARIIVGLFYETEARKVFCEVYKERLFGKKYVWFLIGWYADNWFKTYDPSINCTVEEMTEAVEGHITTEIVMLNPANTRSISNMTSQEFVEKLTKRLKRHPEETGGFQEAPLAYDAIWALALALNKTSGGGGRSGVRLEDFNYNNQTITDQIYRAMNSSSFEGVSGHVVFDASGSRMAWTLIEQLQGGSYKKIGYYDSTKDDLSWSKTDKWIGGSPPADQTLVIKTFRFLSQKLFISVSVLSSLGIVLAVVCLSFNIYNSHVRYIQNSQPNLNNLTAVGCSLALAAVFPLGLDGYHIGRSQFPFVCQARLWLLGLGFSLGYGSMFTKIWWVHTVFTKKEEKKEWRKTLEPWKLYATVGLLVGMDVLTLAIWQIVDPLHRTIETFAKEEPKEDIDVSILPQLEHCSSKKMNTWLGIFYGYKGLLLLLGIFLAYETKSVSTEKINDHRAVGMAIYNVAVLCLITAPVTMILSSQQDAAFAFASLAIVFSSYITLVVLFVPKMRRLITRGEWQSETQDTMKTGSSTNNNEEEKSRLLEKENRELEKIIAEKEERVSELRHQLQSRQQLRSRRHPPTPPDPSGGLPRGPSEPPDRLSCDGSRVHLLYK
T1 sequence (O88871 41-940 partner): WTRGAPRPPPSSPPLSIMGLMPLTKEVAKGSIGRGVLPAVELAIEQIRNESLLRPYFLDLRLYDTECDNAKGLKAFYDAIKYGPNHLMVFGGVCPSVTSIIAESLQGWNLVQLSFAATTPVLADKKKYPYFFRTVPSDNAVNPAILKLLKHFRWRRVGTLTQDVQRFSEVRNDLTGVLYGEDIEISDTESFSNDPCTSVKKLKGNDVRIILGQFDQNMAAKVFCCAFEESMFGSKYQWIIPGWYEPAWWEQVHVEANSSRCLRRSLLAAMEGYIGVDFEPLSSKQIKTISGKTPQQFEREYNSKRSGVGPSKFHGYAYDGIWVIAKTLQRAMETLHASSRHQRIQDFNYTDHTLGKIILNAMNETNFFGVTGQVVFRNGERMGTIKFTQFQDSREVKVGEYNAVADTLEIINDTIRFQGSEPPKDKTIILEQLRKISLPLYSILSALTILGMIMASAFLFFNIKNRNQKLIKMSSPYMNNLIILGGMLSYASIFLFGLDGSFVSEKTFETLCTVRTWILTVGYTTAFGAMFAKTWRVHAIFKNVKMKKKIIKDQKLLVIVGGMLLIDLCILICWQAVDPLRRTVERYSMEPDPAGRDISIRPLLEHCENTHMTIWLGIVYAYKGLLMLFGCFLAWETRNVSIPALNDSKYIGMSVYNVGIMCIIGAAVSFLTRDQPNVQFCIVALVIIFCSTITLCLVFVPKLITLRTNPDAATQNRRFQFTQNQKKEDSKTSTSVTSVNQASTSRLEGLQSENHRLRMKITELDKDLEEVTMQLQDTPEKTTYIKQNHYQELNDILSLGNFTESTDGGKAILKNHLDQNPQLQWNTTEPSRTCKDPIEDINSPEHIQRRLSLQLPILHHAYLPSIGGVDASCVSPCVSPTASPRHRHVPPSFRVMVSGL

IC50 (GABAB receptor): < 25 µM | oral bioavailability (F %) [1]: greater than 10%
SMILES: Cl.NC[C@H](CC(=O)O)c1ccc(Cl)c(OCc2ccncc2)c1 [Example 68, (3R)-4-Amino-3-[4-chloro-3-(4-pyridylmethoxy)phenyl]butanoic acid hydrochloride]
